# Laboratory results reported in patent US6262123A, “Ortho-substituted benzoylguanidines, process for their preparation, their use as a medicament or diagnostic, and medicament comprising them” (Aventis Pharma Deutschland GmbH, priority 1996, dated 2001).
# Where a name gives a salt, the structure may show the parent alone.
# Target: T1, rabbit erythrocyte Na^+ /H^+ exchanger (Oryctolagus cuniculus, UniProt P23791)
# T1 construct: determine the Na^+ influx into the erythrocytes by way of Na^+ /H^+ exchange; endogenous in cells; host or cells: erythrocytes in whole blood of cholesterol-fed New Zealand White rabbits
# T1 sequence (P23791 whole entry): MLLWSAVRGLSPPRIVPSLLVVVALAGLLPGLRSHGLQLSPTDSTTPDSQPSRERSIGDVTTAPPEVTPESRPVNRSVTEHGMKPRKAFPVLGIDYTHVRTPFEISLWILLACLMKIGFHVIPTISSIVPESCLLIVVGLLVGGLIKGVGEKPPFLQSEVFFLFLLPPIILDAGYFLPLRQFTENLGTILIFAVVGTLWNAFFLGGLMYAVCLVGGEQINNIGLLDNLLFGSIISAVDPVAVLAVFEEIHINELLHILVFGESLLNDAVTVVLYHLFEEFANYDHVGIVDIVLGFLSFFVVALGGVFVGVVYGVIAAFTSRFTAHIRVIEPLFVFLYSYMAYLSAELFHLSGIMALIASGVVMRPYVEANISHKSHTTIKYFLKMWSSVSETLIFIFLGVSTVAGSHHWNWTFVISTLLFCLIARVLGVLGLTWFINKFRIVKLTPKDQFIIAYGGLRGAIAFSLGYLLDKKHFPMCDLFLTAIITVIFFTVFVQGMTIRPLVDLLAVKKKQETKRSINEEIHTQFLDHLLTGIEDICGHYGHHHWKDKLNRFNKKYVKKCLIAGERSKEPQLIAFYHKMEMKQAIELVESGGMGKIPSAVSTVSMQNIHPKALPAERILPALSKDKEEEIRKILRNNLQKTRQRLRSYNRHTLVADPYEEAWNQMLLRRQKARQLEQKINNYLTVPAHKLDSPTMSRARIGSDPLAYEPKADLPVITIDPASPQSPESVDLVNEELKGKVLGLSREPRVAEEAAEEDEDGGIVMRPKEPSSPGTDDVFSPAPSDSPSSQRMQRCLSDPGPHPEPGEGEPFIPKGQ
# Assay: Inhibition of the rabbit erythrocyte Na^+ /H^+ exchanger (amiloride-sensitive Na^+ influx, flame photometry)
# Assay type: cell-based, New Zealand White rabbits
# Conditions: erythrocytes of cholesterol-fed rabbits; pH 7.4, 37° C., hyperosmolar salt/sucrose medium
# Description: Inhibition of the rabbit erythrocyte Na^+ /H^+ exchanger New Zealand White rabbits (Ivanovas) were given a standard diet containing 2% cholesterol for six weeks in order to activate the Na^+ /H^+ exchange and thereby render it possible to use flame photometry to determine the Na^+ influx into the erythrocytes by way of Na^+ /H^+ exchange. The blood was withdrawn from the aural arteries and rendered incoagulable by adding 25 IU of potassium heparin. One part of each sample was used for determining the hematocrit in duplicate by means of centrifugation. Aliquots of in each case 100 μl were used for measuring the initial Na^+ content of the erythrocytes.
# In order to determine the amiloride-sensitive sodium influx, 100 μl of each blood sample were in each case incubated, at pH 7.4 and 37° C., in 5 ml of a hyperosmolar salt/sucrose medium (mmol/l: 140 NaCl, 3 KCl, 150 sucrose, 0.1 ouabain, 20 tris(hydroxymethyl)aminomethane). After that, the erythrocytes were washed three times with an ice-cold solution of MgCl2 /ouabain (mmol/l: 112 MgCl2, 0.1 ouabain) and hemolyzed in 2.0 ml of distilled water. The intracellular sodium content was determined by flame photometry.
# The net influx of Na^+ was calculated from the difference between the initial sodium values and the sodium content of the erythrocytes after incubation. The amiloride-inhibitable sodium influx was obtained from the difference in the sodium content of the erythrocytes after incubating with and without 3×10^-4 mol/l amiloride. The same procedure was adopted in the case of the novel compounds.
row,SMILES,IC50
1,"NC(N)=NC(=O)c1cc(C(F)(F)F)c(O)cc1Cl [Example 4, 2-Chloro4-hydroxy-5-trifluoromethylbenzoylguanidine hydrochloride]",0.14 µM
2,"NC(N)=NC(=O)c1cc(I)c(O)c(I)c1Cl [Example 3, 2-Chloro4-hydroxy-3,5-diiodobenzoylguanidine hydrochloride]",0.1 µM
3,"NC(N)=NC(=O)c1ccc(O)cc1Cl [Example 1, 2-Chloro4-hydroxybenzoylguanidine hydrochloride]",4 µM
4,"NC(N)=NC(=O)c1cc(I)c(O)cc1Cl [Example 2, 2-Chloro-4-hydroxy-5-iodobenzoylguanidine hydrochloride]",0.24 µM
